Reference: US20250339399A1, “SUPRAMOLECULAR SELF-ASSEMBLY SYSTEM” (Beijing Creatron Institute of Pharmaceutical Research Co., …, priority 2022, published 2025)
Where “and” joins values, the source holds several entries; their conditions need not be identical. Equal entries are not always repeated.

Assays:
[1] = Binary (carrier), ternary and quaternary supramolecular self-assembly systems of polymer, carrier building block and target: guest concentration over incubation time (Examples 1-56); type: physicochemical; conditions: for Concentration of guest molecule in solution / Times that of the initial medium: 6 h
How it was run: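 Targets were incubated at 37 °C in pH 2.0–7.4 buffers with 0.5% polymer alone or with carrier building blocks, after 0.5 h sonication for ternary systems, and shaken at 200 rpm. Samples at 0.5–6 h were centrifuged and diluted ≥10-fold, and dissolved target was quantified by HPLC; surfactant was added if needed.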

[2] = Guest molecule concentration after incubation in initial medium without polymer (Comparative Example 1); type: physicochemical; conditions: 37° C., 0.05% Tween 20 in pH 6.8 phosphate buffer
How it was run: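 Dissolved guest content measured by HPLC of centrifuged supernatants (37° C., 13000 rpm, 5 min) sampled at 0.5 h, 3 h and 6 h. Incubation was polymer-free at 37° C.±0.5° C. in buffers of pH 2.0-7.4; nominal loading was set by maximum clinical dose.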

[3] = cited from earlier work
[4] = Binary supramolecular self-assembly systems of polymer and target: guest concentration over incubation time (Comparative Example 2); type: physicochemical
Method: Experiments were conducted according to the steps in Comparative Example 1, and quantitative analysis was carried out using the analytical method for each target to investigate the regulation ability […] stacking.

[5] = 0.25% 205 (102H+104) + 0.25% 301
[6] = quaternary: 204 (102H+103E5) + 0.5% 301
[7] = ternary: 102H (0.25% where stated) + 301, carrier % not stated
[8] = ternary: 102H (0.25% where stated) + 302, carrier % not stated
[9] = ternary: 102H + 313 at further increased mass percentage
[10] = ternary: 102H + 318 at further increased mass percentage

C=CC(=O)N1CCC[C@@H](n2nc(-c3ccc(Oc4ccccc4)cc3)c3c(N)ncnc32)C1 [Ibrutinib]
Concentration of guest molecule in solution [1, 5]: 157.4 µg/mL
Times that of the initial medium [1, 5]: 8.6 times
Concentration of guest molecule in solution ([1]; binary, no polymer: 0.5% 301): 156.9 µg/mL
Times that of the initial medium ([1]; binary, no polymer: 0.5% 301): 8.5 times
Concentration of guest molecule in solution [1, 6]: 206.4 µg/mL
Times that of the initial medium [1, 6]: 11 times
Encapsulation rate for the guest molecule ([1]; ternary: 0.25% 102H + 0.5% 319): ~100%
Concentration of guest molecule in solution [1, 7]: 446.0 µg/mL
Times that of the initial medium [1, 7]: about 25 times
Concentration of guest molecule in solution [1, 8]: 410.7 µg/mL
Times that of the initial medium [1, 8]: 22 times
Concentration of guest molecule in solution ([1]; ternary: 102H + 313, carrier % not given): 436.6 µg/mL
Encapsulation rate for the guest molecule [1, 9]: ~100%
Concentration of guest molecule in solution [1, 9]: 792.1 µg/mL
Times that of the initial medium [1, 9]: 43 times
Concentration of guest molecule in solution ([1]; ternary: 102H + 318, carrier % not stated): 429.9 µg/mL
Concentration of guest molecule in solution [1, 10]: 774.7 µg/mL
Times that of the initial medium [1, 10]: 42 times
Concentration of guest molecule measured after different incubated time ([2]; 0.5 h): 16.5 µg/mL
Concentration of guest molecule measured after different incubated time ([2]; 3 h): 17.9 µg/mL
Concentration of guest molecule measured after different incubated time ([2]; 6 h): 18.4 µg/mL
LogD7.4 or Log P [3]: 3.63
Concentration of the target in the solution measured after different incubation time ([4]; binary system with 0.5% polymer 101, incubation 0.5 h): 48.5 µg/mL
Concentration of the target in the solution measured after different incubation time ([4]; binary system with 0.5% polymer 101, incubation 3 h): 93.5 µg/mL
Concentration of the target in the solution measured after different incubation time ([4]; binary system with 0.5% polymer 101, incubation 6 h): 95.3 µg/mL
Concentration of the target in the solution measured after different incubation time ([4]; binary system with 0.5% polymer 102, incubation 0.5 h): 168.1 µg/mL
Concentration of the target in the solution measured after different incubation time ([4]; binary system with 0.5% polymer 102, incubation 3 h): 176.4 µg/mL
Concentration of the target in the solution measured after different incubation time ([4]; binary system with 0.5% polymer 102, incubation 6 h): 154.5 µg/mL
Concentration of the target in the solution measured after different incubation time ([4]; binary system with 0.5% polymer 103, incubation 0.5 h): 44.1 µg/mL
Concentration of the target in the solution measured after different incubation time ([4]; binary system with 0.5% polymer 103, incubation 3 h): 17.8 µg/mL
Concentration of the target in the solution measured after different incubation time ([4]; binary system with 0.5% polymer 103, incubation 6 h): 17.1 µg/mL
Concentration of the target in the solution measured after different incubation time ([4]; binary system with 0.5% polymer 104, incubation 0.5 h): 13.4 µg/mL
Concentration of the target in the solution measured after different incubation time ([4]; binary system with 0.5% polymer 104, incubation 3 h): 13.7 µg/mL
Concentration of the target in the solution measured after different incubation time ([4]; binary system with 0.5% polymer 104, incubation 6 h): 14.3 µg/mL
Concentration of the target in the solution measured after different incubation time ([4]; binary system with 0.5% polymer 106, incubation 0.5 h): 33.8 µg/mL
Concentration of the target in the solution measured after different incubation time ([4]; binary system with 0.5% polymer 106, incubation 3 h): 65.9 µg/mL
Concentration of the target in the solution measured after different incubation time ([4]; binary system with 0.5% polymer 106, incubation 6 h): 68.4 µg/mL
Concentration of the target in the solution measured after different incubation time ([4]; binary system with 0.5% polymer 107, incubation 0.5 h): 47.9 µg/mL
Concentration of the target in the solution measured after different incubation time ([4]; binary system with 0.5% polymer 107, incubation 3 h): 53.1 µg/mL
Concentration of the target in the solution measured after different incubation time ([4]; binary system with 0.5% polymer 107, incubation 6 h): 56.0 µg/mL
Concentration of guest molecule in solution ([4]; binary: 0.25% 102H, 6 h): 260.2 µg/mL
Times that of the initial medium ([4]; binary: 0.25% 102H, 6 h): 14 times and 14.5 times
